Literature values as cited in patent publication US7589137B2, “Resin composition and molded product obtained therefrom” (Sony Corporation, priority 2005, dated 2009).

Settings: safety to a living body

| SMILES | LD50 |
| --- | --- |
| Cc1cc(O)nc(O)n1 [6-methyluracil] | 64500 mg/kg |
| O=c1cc[nH]c(=O)[nH]1 [Uracil, uracil] | several |
